According to PMC10380083, “Synthesis of Prostate-Specific Membrane Antigen-Targeted Bimodal Conjugates of Cytotoxic Agents and Antiandrogens and Their Comparative Assessment with Monoconjugates” (International Journal of Molecular Sciences, 2023):
*1 amine or outer side, *2 acyl side, *3 side chain or, on linkers, in order; H or OH if unused. Where a SMILES comes first, the peptide text is derived from it. [ ]: non-standard residue; d: D form. The star is where a group is joined. GluureaLys(ε-3-ClBenzyl) = O=C(O)CC[C@H](NC(=O)N[C@@H](CCCCN(Cc1cccc(Cl)c1)*)C(=O)O)C(=O)O; X5 = O=C(O)CC[C@H](NC(=O)N[C@@H](CCCCN(Cc1ccc(C(=O)O)cc1)*)C(=O)O)C(=O)O; X6 = O=C(O)CC[C@H](NC(=O)N[C@@H](CCCCN(Cc1ccc(Br)cc1)*)C(=O)O)C(=O)O; Dolaproine = CO[C@@H]([C@@H]1CCCN1)[C@@H](C)C(=O)O; Dil = CC[C@H](C)[C@H](NC)[C@@H](CC(=O)O)OC; X2 = O=C(CCCc1cn(CCCN[*:1])nn1)[*:2]; PABC = O=C(OCc1ccc(N[*:1])cc1)[*:2]; X1 = C[C@@H](N*)[C@@H](O)c1ccccc1; Cit = NC(=O)NCCC[C@H](N)C(=O)O; Suc = O=C(CCC(=O)[*:2])[*:1]; NMeV = CN[C@H](C(=O)O)C(C)C; Ahx = NCCCCCC(=O)O

Columns and labels:
[1] = target: T1, PSMA (glutamate carboxypeptidase II, GCPII) (Homo sapiens, UniProt Q04609); experiment: Inhibition of the NAAG cleavage reaction (affinity to PSMA), LNCaP cell extract; assay type: biochemical; conditions: SD
T1 construct: endogenous in cells; host or cells: LNCaP cells (Triton X-100 lysate, sonicated, supernatant after 1000g)
T1 sequence (Q04609 whole entry): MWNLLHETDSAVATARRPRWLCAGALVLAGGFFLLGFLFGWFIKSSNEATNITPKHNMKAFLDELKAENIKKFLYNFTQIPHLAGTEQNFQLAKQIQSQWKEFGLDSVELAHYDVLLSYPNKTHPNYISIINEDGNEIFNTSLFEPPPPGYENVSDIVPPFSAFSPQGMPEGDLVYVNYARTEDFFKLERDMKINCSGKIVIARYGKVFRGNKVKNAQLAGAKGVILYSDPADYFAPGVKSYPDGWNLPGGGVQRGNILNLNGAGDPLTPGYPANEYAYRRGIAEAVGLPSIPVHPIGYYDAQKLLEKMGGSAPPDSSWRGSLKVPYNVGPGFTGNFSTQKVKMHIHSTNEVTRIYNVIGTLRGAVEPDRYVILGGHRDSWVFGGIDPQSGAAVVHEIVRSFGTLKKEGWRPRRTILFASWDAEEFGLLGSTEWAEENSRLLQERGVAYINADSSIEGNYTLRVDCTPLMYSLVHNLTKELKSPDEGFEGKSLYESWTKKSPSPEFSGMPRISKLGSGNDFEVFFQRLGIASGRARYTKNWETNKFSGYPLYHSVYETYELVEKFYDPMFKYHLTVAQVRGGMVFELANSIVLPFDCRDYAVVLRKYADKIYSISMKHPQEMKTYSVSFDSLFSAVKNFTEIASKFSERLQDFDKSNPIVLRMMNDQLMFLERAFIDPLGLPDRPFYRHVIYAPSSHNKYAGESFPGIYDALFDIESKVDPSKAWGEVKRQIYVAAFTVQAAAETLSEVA
Protocol: The affinity of the four newly obtained ligands to PSMA was evaluated in vitro by inhibiting the cleavage of N-acetylaspartylglutamic acid (NAAG). One function of PSMA, also known as glutamate carboxypeptidase II (GCPII), is the cleavage of NAAG into N-acetylaspartate and glutamate. PSMA-specific ligands inhibit this reaction by interacting with the protein. Thus, the calculation of the values of half-maximum inhibition (IC50) allows evaluation of the binding efficiency of the synthesized compounds to the protein. The analogues of the obtained ligands 6a–d without a lysine residue in their structure were chosen as comparison ligands. Also, some ligands previously described in the literature were chosen as references.
LNCaP cells were cultured in RPMI medium with 10% FBS (Gibco, Billings, MT, USA), 1xGlutamax (Gibco) and 1x penicillin-streptomycin mixture (Gibco, USA). To suspend the cells, growth medium was removed from the 25 cm^2 vial, the cells were washed with PBS buffer and incubated for 5 min with 0.25% trypsin (1 mL). Trypsin was inactivated with complete growth medium (2 mL), washed with PBS, transferred 10^6 cells to a test tube, and 500 μL of lysis buffer (0.5% Triton X-100, 50 mM Tris-HCl (pH 7.5) and 1× Proteinase Inhibition cocktail) was added. The suspension was incubated for 30 min on ice and sonicated (seven times 7 sec at 20–30 s intervals) on ice to avoid overheating. The suspension was centrifuged for 10 min at 1000g at 4 °C, and the supernatant was used in further analysis.
The inhibition by PSMA ligands was analyzed using a non-radioactive protocol with detection of the glutamate released during the reaction. LNCaP cell line extract (10 μL) was mixed with 2 μL of the appropriate compound preparation. A series of dilutions of 2 nM-100 μM compounds was used for initial testing, with dilution steps of 3–5 times. To the resulting mixture, 1 μL of 100 μM NAAG solution was added. The mixture was incubated for 2 h at 37 °C. After incubation, the mixture was doubled with reaction buffer (13 μL) from the Amplex Red Glutamic Acid Kit (Molecular Probes Inc., Eugene, OR, USA), and the multi-component glutamate detection reaction mixture prepared according to the manufacturer’s protocol (26 μL) was added. Amplex Red stock solution: 5 μL Amplex® Red reagent stock solution, 1.25 μL HRP stock solution, 8 μL L-glutamate oxidase, 2.5 μL L-glutamate pyruvate transaminase, 0.5 μL L-alanine, 483 μL 1× reaction buffer. Incubation was performed for 1 h at 37 °C. The fluorescence of resorufin produced by conjugated glutamate detection kit reactions was detected on a VICTORX5 multidetector plate (Perkin Elmer Inc., Waltham, MA, USA) at an excitation length of 555 nm and detection at 580 nm. As a control for endogenous glutamate levels with replacement of the NAAG solution with water.

[2] = test system: LNCaP cells; experiment: In vitro cytotoxicity, MTS assay, LNCaP; assay type: cell-based; conditions: 72 h, high PSMA expression, range 0.5 to 800 nM, triplicates
Protocol: (§1) The resulting bimodal conjugates were tested in vitro on three different PCa cell lines. We used LNCaP cells with high PSMA expression, 22Rv1 cells with moderate PSMA expression and PC-3 cells with extremely low PSMA expression. Different levels of PSMA expression in 22Rv1 and LNCaP cell lines allows evaluation of the effect of the level of expression on the toxicity of the target drugs. PSMA-negative cell line PC-3 allows a qualitative assessment of non-specific toxicity of the obtained compounds.
(§2) The cytotoxicity of the investigated substances was tested using the MTS assay with some modifications. Cells were seeded in the 96-well plates (Corning, New York, NY, USA) at concentration of 7000 cells per well for PC-3 culture, 12,000 cells per well for LNCaP cells and 20,000 cells per well for 22Rv1 line. The cells were counted using the automatic cell counter EVE. All cell lines were purchased from the American Type Culture Collection (ATCC, Manassas, VA, USA). After 1 day, serial dilutions of tested substances were added to the cells. Cell culture medium with addition of DMSO in appropriate concentrations was used as a negative control. DMSO (30%) was added in culture medium as a positive control. Cells were then incubated during 72 h at 37 °C and 5% CO2. Later, the culture medium from each well was removed and 20 μL of MTS reagent (CellTiter 96 AQueous Non-Radioactive Cell Proliferation Assay, Promega) were added to each well with 100 μL of new culture medium. After 4 h incubation at 37 °C in darkness, the absorbance of the solution was measured at 490 nm wavelength using Thermo Scientific Multiskan GO spectrometer. Cell viability was calculated as a percentage compared to control cells. The absorbance of MTS reagent in culture medium without cells was taken as zero. […] Experiments were performed in triplicates. Data were analyzed using Prism 9—GraphPad version 9.2.0 software. p values < 0.05 were considered significant.

[3] = test system: PC-3 cells; experiment: In vitro cytotoxicity, MTS assay, PC-3; assay type: cell-based, human; conditions: 72 h, extremely low PSMA expression, range 0.5 to 800 nM, triplicates
Protocol: as §1, §2

[4] = test system: 22Rv1 cells; experiment: In vitro cytotoxicity, MTS assay, 22Rv1; assay type: cell-based, human; conditions: 72 h, moderate PSMA expression, range 0.5 to 800 nM, triplicates
Protocol: as §1, §2

[5] = inhibition of NAAG cleavage, LNCaP cell extract, 2 h at 37 °C, glutamate detected with Amplex Red kit (fluorescence)

Compound | IC50 [1, 5] [nM] | IC50 [1] [nM] | CC50, LNCaP [2] [nM] | CC50, PC-3 [3] [nM] | CC50, 22Rv1 [4] [nM]
[N-]=[N+]=NCCCNC(=O)[C@H](CCCCN)NC(=O)[C@H](Cc1ccc(O)cc1)NC(=O)[C@H](Cc1ccccc1)NC(=O)CCC(=O)NCCCCCC(=O)N(CCCC[C@H](NC(=O)N[C@@H](CCC(=O)O)C(=O)O)C(=O)O)Cc1ccc(C(=O)O)cc1 [6c, (3S,7S,25S,28S,31S)-31-(4-aminobutyl)-36-azido-25-benzyl-12-(4-carboxybenzyl)-28-(4-hydroxybenzyl)-5,13,20,23,26,29,32-heptaoxo-4,6,12,19,24,27,30,33-octaazahexatriacontane-1,3,7-tricarboxylic acid] | 10 ± 3 | – | – | – | –
NCCCC[C@H](NC(=O)N[C@@H](CCC(=O)O)C(=O)O)C(=O)O [DCL, (S)-2-(3-((S)-5-amino-1-carboxypentyl)ureido)pentanedioic acid, reference compound] | 547 ± 389 | – | – | – | –
[N-]=[N+]=NCCCNC(=O)[C@H](CCCCN)NC(=O)[C@H](Cc1ccc(O)cc1)NC(=O)[C@H](Cc1ccccc1)NC(=O)CCC(=O)NCCCCCC(=O)N(CCCC[C@H](NC(=O)N[C@@H](CCC(=O)O)C(=O)O)C(=O)O)Cc1cccc(Cl)c1 [6a, (3S,7S,25S,28S,31S)-31-(4-aminobutyl)-36-azido-25-benzyl-12-(3-chlorobenzyl)-28-(4-hydroxybenzyl)-5,13,20,23,26,29,32-heptaoxo-4,6,12,19,24,27,30,33-octaazahexatriacontane-1,3,7-tricarboxylic acid] | – | 13 ± 3 | – | – | –
C[C@]12CC[C@H](OC(=O)CCCc3cn(CCCNC(=O)[C@H](Cc4ccc(O)cc4)NC(=O)[C@H](Cc4ccccc4)NC(=O)CCC(=O)NCCCCCC(=O)N(CCCC[C@H](NC(=O)N[C@@H](CCC(=O)O)C(=O)O)C(=O)O)Cc4cccc(Cl)c4)nn3)CC1=CC[C@@H]1[C@@H]2CC[C@]2(C)C(c3cccnc3)=CC[C@@H]12 [II, reference compound] | – | – | >800 | >800 | >800
[N-]=[N+]=NCCCNC(=O)[C@H](CCCCN)NC(=O)[C@H](Cc1ccccc1)NC(=O)[C@H](Cc1ccccc1)NC(=O)CCC(=O)NCCCCCC(=O)N(CCCC[C@H](NC(=O)N[C@@H](CCC(=O)O)C(=O)O)C(=O)O)Cc1ccc(C(=O)O)cc1 [6d, (3S,7S,25S,28S,31S)-31-(4-aminobutyl)-36-azido-25,28-dibenzyl-12-(4-carboxybenzyl)-5,13,20,23,26,29,32-heptaoxo-4,6,12,19,24,27,30,33-octaazahexatriacontane-1,3,7-tricarboxylic acid] | 5.5 ± 1.7 | – | – | – | –
[N-]=[N+]=NCCCNC(=O)[C@H](CCCCN)NC(=O)[C@H](Cc1ccc(O)cc1)NC(=O)[C@H](Cc1ccccc1)NC(=O)CCC(=O)NCCCCCC(=O)N(CCCC[C@H](NC(=O)N[C@@H](CCC(=O)O)C(=O)O)C(=O)O)Cc1ccc(Br)cc1 [6b, (3S,7S,25S,28S,31S)-31-(4-aminobutyl)-36-azido-25-benzyl-12-(4-bromobenzyl)-28-(4-hydroxybenzyl)-5,13,20,23,26,29,32-heptaoxo-4,6,12,19,24,27,30,33-octaazahexatriacontane-1,3,7-tricarboxylic acid] | – | 11 ± 2 | – | – | –
CC[C@H](C)[C@@H]([C@@H](CC(=O)N1CCC[C@H]1[C@H](OC)[C@@H](C)C(=O)N[C@H](C)[C@@H](O)c1ccccc1)OC)N(C)C(=O)[C@@H](NC(=O)[C@H](C(C)C)N(C)C(=O)OCc1ccc(NC(=O)[C@H](CCCNC(N)=O)NC(=O)[C@@H](NC(=O)CCCc2cn(CCCNC(=O)[C@H](CCCCN)NC(=O)[C@H](Cc3ccc(O)cc3)NC(=O)[C@H](Cc3ccccc3)NC(=O)CCC(=O)NCCCCCC(=O)N(CCCC[C@H](NC(=O)N[C@@H](CCC(=O)O)C(=O)O)C(=O)O)Cc3cccc(Cl)c3)nn2)C(C)C)cc1)C(C)C [12a] ({GluureaLys(ε-3-ClBenzyl)-Ahx-Suc}-FYK[X2]V[Cit][PABC][NMeV]V[Dil][Dolaproine]-X1) | – | – | 157.4 ± 2.0 | >800 | 267.9 ± 3.8
CC[C@H](C)[C@@H]([C@@H](CC(=O)N1CCC[C@H]1[C@H](OC)[C@@H](C)C(=O)N[C@H](C)[C@@H](O)c1ccccc1)OC)N(C)C(=O)[C@@H](NC(=O)[C@H](C(C)C)N(C)C(=O)OCc1ccc(NC(=O)[C@H](CCCNC(N)=O)NC(=O)[C@@H](NC(=O)CCCc2cn(CCCNC(=O)[C@H](CCCCN)NC(=O)[C@H](Cc3ccc(O)cc3)NC(=O)[C@H](Cc3ccccc3)NC(=O)CCC(=O)NCCCCCC(=O)N(CCCC[C@H](NC(=O)N[C@@H](CCC(=O)O)C(=O)O)C(=O)O)Cc3ccc(C(=O)O)cc3)nn2)C(C)C)cc1)C(C)C [12c] ({X5-Ahx-Suc}-FYK[X2]V[Cit][PABC][NMeV]V[Dil][Dolaproine]-X1) | – | – | 177.8 ± 2.2 | >800 | 453.7 ± 9.8
CC[C@H](C)[C@@H]([C@@H](CC(=O)N1CCC[C@H]1[C@H](OC)[C@@H](C)C(=O)N[C@H](C)[C@@H](O)c1ccccc1)OC)N(C)C(=O)[C@@H](NC(=O)[C@H](C(C)C)N(C)C(=O)OCc1ccc(NC(=O)[C@H](CCCNC(N)=O)NC(=O)[C@@H](NC(=O)CCCc2cn(CCCNC(=O)[C@H](CCCCN)NC(=O)[C@H](Cc3ccccc3)NC(=O)[C@H](Cc3ccccc3)NC(=O)CCC(=O)NCCCCCC(=O)N(CCCC[C@H](NC(=O)N[C@@H](CCC(=O)O)C(=O)O)C(=O)O)Cc3ccc(C(=O)O)cc3)nn2)C(C)C)cc1)C(C)C [12d] ({X5-Ahx-Suc}-FFK[X2]V[Cit][PABC][NMeV]V[Dil][Dolaproine]-X1) | – | – | 197.8 ± 2.7 | >800 | 463.3 ± 8.0
CC[C@H](C)[C@@H]([C@@H](CC(=O)N1CCC[C@H]1[C@H](OC)[C@@H](C)C(=O)N[C@H](C)[C@@H](O)c1ccccc1)OC)N(C)C(=O)[C@@H](NC(=O)[C@H](C(C)C)N(C)C(=O)OCc1ccc(NC(=O)[C@H](CCCNC(N)=O)NC(=O)[C@@H](NC(=O)CCCc2cn(CCCNC(=O)[C@H](CCCCN)NC(=O)[C@H](Cc3ccc(O)cc3)NC(=O)[C@H](Cc3ccccc3)NC(=O)CCC(=O)NCCCCCC(=O)N(CCCC[C@H](NC(=O)N[C@@H](CCC(=O)O)C(=O)O)C(=O)O)Cc3ccc(Br)cc3)nn2)C(C)C)cc1)C(C)C [12b] ({X6-Ahx-Suc}-FYK[X2]V[Cit][PABC][NMeV]V[Dil][Dolaproine]-X1) | – | – | 182.6 ± 2.2 | >800 | 247.8 ± 3.3
